Laboratory results from patent US12473289B2, “Heterocyclic compounds as delta-5 desaturase inhibitors and methods of use” (Amgen Inc., priority 2019, dated 2025).

Target: Delta-5-Desaturase (D5D) (Homo sapiens (Human), UniProt O60427)
Assay: In vitro measurement of Delta-5-Desaturase inhibitory activity using DGLA-CoA and Arachidonyl-CoA mass spectrometric assays
Assay type: biochemical
Conditions: membrane preparations of D5D-overexpressing HEK293 6E cells; averaged over at least two independent runs
How it was run: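 DGLA-CoA and arachidonyl-CoA were read by RapidFire SPE triple-quad MS (negative mode, MRM) after a 1 h ambient-temperature reaction quenched with acetonitrile. Enzyme was D5D-overexpressing HEK293 6E membranes at 10 μg/mL final; substrate solution held 0.01 mM DGLA plus NADH, ATP and CoA. Inhibition was referenced to DMSO and no-enzyme wells; 4PL IC50.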

Sequence of Delta-5-Desaturase (D5D) (O60427 whole entry, species assumed): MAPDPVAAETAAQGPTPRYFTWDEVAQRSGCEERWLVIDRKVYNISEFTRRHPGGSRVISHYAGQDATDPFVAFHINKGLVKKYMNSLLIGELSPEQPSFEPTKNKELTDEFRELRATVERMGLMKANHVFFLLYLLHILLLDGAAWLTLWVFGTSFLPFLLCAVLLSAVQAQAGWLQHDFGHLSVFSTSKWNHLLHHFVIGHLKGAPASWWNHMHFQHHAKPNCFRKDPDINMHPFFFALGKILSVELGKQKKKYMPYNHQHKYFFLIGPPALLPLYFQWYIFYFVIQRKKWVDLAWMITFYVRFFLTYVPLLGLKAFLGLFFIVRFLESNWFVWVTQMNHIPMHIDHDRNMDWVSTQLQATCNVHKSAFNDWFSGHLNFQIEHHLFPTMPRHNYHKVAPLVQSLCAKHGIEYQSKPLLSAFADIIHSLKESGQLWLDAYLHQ

Row | SMILES | IC50 [nM]
1 | COc1ccn2c(=O)c(-c3cnn(CC4CC4)c3)c(C(F)(F)F)nc2c1 [Example 39-45, 3-[1-(cyclopropylmethyl)-1H-pyrazol-4-yl]-8-methoxy-2-(trifluoromethyl)-4H-pyrido[1,2-a]pyrimidin-4-one] | 47.4
2 | CN(C)C(=O)c1ccn2c(=O)c(-c3ccc(OCC(F)(F)F)cc3)c(C(F)(F)F)nc2c1 [Example 12-3, N,N-dimethyl-4-oxo-3-(4-(2,2,2-trifluoroethoxy)phenyl)-2-(trifluoromethyl)-4H-pyrido[1,2-a]pyrimidine-8-carboxamide] | 2540
3 | O=c1c(-c2cnn(CC(F)(F)C(F)(F)F)c2)c(C(F)(F)F)nc2cc(Cl)ccn12 [Example 2-6, 8-chloro-3-(1-(2,2,3,3,3-pentafluoropropyl)-1H-pyrazol-4-yl)-2-(trifluoromethyl)-4H-pyrido[1,2-a]pyrimidin-4-one] | 8.2
4 | CCCn1cc(-c2c(C(F)(F)F)nc3cc(OC)ccn3c2=O)cn1 [Example 1-76, 8-methoxy-3-(1-propyl-1H-pyrazol-4-yl)-2-(trifluoromethyl)-4H-pyrido[1,2-a]pyrimidin-4-one] | 17.6
5 | COc1ccn2c(=O)c(-c3ccc(OCCF)cc3)c(C(F)(F)F)nc2c1 [Example 1-11, 3-(4-(2-fluoroethoxy)phenyl)-8-methoxy-2-(trifluoromethyl)-4H-pyrido[1,2-a]pyrimidin-4-one] | 26.1
6 | C[S+]([O-])c1ccn2c(=O)c(-c3ccc(OCC(F)(F)F)cc3)c(C(F)(F)F)nc2c1 (stereo not shown) [Example 15-1, 8-(Methylsulfinyl)-3-(4-(2,2,2-trifluoroethoxy)phenyl)-2-(trifluoromethyl)-4H-pyrido[1,2-a]pyrimidin-4-one] | 441
7 | CC[S@@+]([O-])c1ccn2c(=O)c(-c3ccc(OCC(F)(F)F)cc3)c(C(F)(F)F)nc2c1 [Example 15-8, 8-((R)-ethylsulfinyl)-3-(4-(2,2,2-trifluoroethoxy)phenyl)-2-(trifluoromethyl)-4H-pyrido[1,2-a]pyrimidin-4-one] | 185
8 | COc1nc2nc(C(F)(F)F)c(-c3cnn(CC(F)(F)C(F)(F)F)c3)c(=O)n2cc1F [Example 42, 7-Fluoro-8-methoxy-3-[1-(2,2,3,3,3-pentafluoropropyl)-1H-pyrazol-4-yl]-2-(trifluoromethyl)-4H-[1,3]diazino[1,2-a]pyrimidin-4-one] | 168
9 | COc1cc2nc(C(F)(F)F)c(-c3cnn(CC(F)(F)C(F)(F)F)c3)c(=O)n2cn1 [Example 39-10, 8-methoxy-3-[1-(2,2,3,3,3-pentafluoropropyl)-1H-pyrazol-4-yl]-2-(trifluoromethyl)-4H-[1,3]diazino[1,6-a]pyrimidin-4-one] | 6.3
10 | COc1ccn2c(=O)c(-c3cnn(CC(F)(F)C(F)(F)F)c3)c(C(F)(F)F)nc2c1Cl [Example 39-3, 9-chloro-8-methoxy-3-[1-(2,2,3,3,3-pentafluoropropyl)-1H-pyrazol-4-yl]-2-(trifluoromethyl)-4H-pyrido[1,2-a]pyrimidin-4-one] | 188
11 | COc1ccn2c(=O)c(-c3ccc(OCCF)cc3)c(C(F)(F)F)nc2n1 [Example 1-57, 3-(4-(2-fluoroethoxy)phenyl)-8-methoxy-2-(trifluoromethyl)-4H-pyrimido[1,2-a]pyrimidin-4-one] | 226
12 | Cc1ccc2nc(C(F)(F)F)c(-c3cnn(CCC(F)(F)F)c3)c(=O)n2n1 [Example 39-33, 7-methyl-2-(trifluoromethyl)-3-[1-(3,3,3-trifluoropropyl)-1H-pyrazol-4-yl]-4H-pyrimido[1,2-b]pyridazin-4-one] | 19.9
13 | CC(=O)c1ccn2c(=O)c(-c3ccc(OCC(F)(F)F)cc3)c(C(F)(F)F)nc2c1 [Example 1-25, 8-acetyl-3-(4-(2,2,2-trifluoroethoxy)phenyl)-2-(trifluoromethyl)-4H-pyrido[1,2-a]pyrimidin-4-one] | 6.4
14 | Cc1cc2nc(C(F)(F)F)c(-c3cnn(CC(F)(F)C(F)(F)F)c3)c(=O)n2cc1F [Example 39-56, 7-fluoro-8-methyl-3-[1-(2,2,3,3,3-pentafluoropropyl)-1H-pyrazol-4-yl]-2-(trifluoromethyl)-4H-pyrido[1,2-a]pyrimidin-4-one] | 19.1
15 | O=c1ccn2c(=O)c(-c3ccc(OCC(F)(F)F)cc3)c(C(F)(F)F)nc2[nH]1 [Example 10-3, 7-(4-(2,2,2-trifluoroethoxy)phenyl)-8-(trifluoromethyl)-2H-pyrimido[1,2-a]pyrimidine-2,6(1H)-dione] | 900
16 | CCOc1nc2cc(OC)ccn2c(=O)c1-c1cnn(CC(F)(F)C(F)(F)F)c1 [Example 41-4, 2-ethoxy-8-methoxy-3-[1-(2,2,3,3,3-pentafluoropropyl)-1H-pyrazol-4-yl]-4H-pyrido[1,2-a]pyrimidin-4-one] | 22.3
17 | COc1cnn2c(=O)c(-c3cnn(CCC(F)(F)F)c3)c(C(F)(F)F)nc2c1 [Example 39-11, 8-methoxy-2-(trifluoromethyl)-3-[1-(3,3,3-trifluoropropyl)-1H-pyrazol-4-yl]-4H-pyrimido[1,2-b]pyridazin-4-one] | 6.9

Row | SMILES | IC50 [nM]
18 | COc1ccn2c(=O)c(-c3ccc(OCC(F)(F)F)cc3F)c(C(F)(F)F)nc2n1 [Example 1-53, 3-(2-fluoro-4-(2,2,2-trifluoroethoxy)phenyl)-8-methoxy-2-(trifluoromethyl)-4H-pyrimido[1,2-a]pyrimidin-4-one] | 8.5
19 | Cn1c(=O)c(F)cn2c(=O)c(-c3cnn(CC(F)(F)C(F)(F)F)c3)c(C(F)(F)F)nc12 [Example 63, 3-Fluoro-1-methyl-7-[1-(2,2,3,3,3-pentafluoropropyl)-1H-pyrazol-4-yl]-8-(trifluoromethyl)-1H,2H,6H-[1,3]diazino[1,2-a]pyrimidine-2,6-dione] | 43.6
20 | COc1ccn2c(=O)c(-c3cnn(-c4ccc(F)cc4)c3)c(C(F)(F)F)nc2c1 [Example 1-17, 3-(1-(4-fluorophenyl)-1H-pyrazol-4-yl)-8-methoxy-2-(trifluoromethyl)-4H-pyrido[1,2-a]pyrimidin-4-one] | 13.9
21 | O=c1c(-c2ccc(OCC(F)(F)F)cc2)c(C(F)(F)F)nc2cc(OCF)ccn12 [Example 17-2, 8-(fluoromethoxy)-3-(4-(2,2,2-trifluoroethoxy)phenyl)-2-(trifluoromethyl)-4H-pyrido[1,2-a]pyrimidin-4-one] | 48.6
22 | COc1ccn2c(=O)c(-c3cnn(CCC(F)(F)F)c3)c(C(F)(F)F)nc2n1 [Example 2-4, 8-methoxy-2-(trifluoromethyl)-3-(1-(3,3,3-trifluoropropyl)-1H-pyrazol-4-yl)-4H-pyrimido[1,2-a]pyrimidin-4-one] | 57.4
23 | COc1ccn2c(=O)c(-c3cn(CCC(F)(F)F)cn3)c(C(F)(F)F)nc2c1 [Example 25, 8-Methoxy-2-(trifluoromethyl)-3-(1-(3,3,3-trifluoropropyl)-1H-imidazol-4-yl)-4H-pyrido[1,2-a]pyrimidin-4-one] | 66.2
24 | COCc1ccc2nc(C(F)(F)F)c(-c3cnn(CC(F)(F)C(F)(F)F)c3)c(=O)n2c1 [Example 39-24, 7-(methoxymethyl)-3-[1-(2,2,3,3,3-pentafluoropropyl)-1H-pyrazol-4-yl]-2-(trifluoromethyl)-4H-pyrido[1,2-a]pyrimidin-4-one] | 1520
25 | COc1ccn2c(=O)c(-c3cnn(CC#N)c3)c(C(F)(F)F)nc2c1 [Example 1-26, (4-(8-methoxy-4-oxo-2-(trifluoromethyl)-4H-pyrido[1,2-a]pyrimidin-3-yl)-1H-pyrazol-1-yl)acetonitrile] | 278
26 | COc1ccn2c(=O)c(-c3cnn(C4CC4)c3)c(C(F)(F)F)nc2c1 [Example 49, 3-(1-Cyclopropyl-1H-pyrazol-4-yl)-8-methoxy-2-(trifluoromethyl)-4H-pyrido[1,2-a]pyrimidin-4-one] | 104
27 | O=c1c(-c2ccc(OCC(F)(F)F)cc2)c(C(F)(F)F)nc2cc(C3CC3)ccn12 [Example 4-2, 8-cyclopropyl-3-(4-(2,2,2-trifluoroethoxy)phenyl)-2-(trifluoromethyl)-4H-pyrido[1,2-a]pyrimidin-4-one] | 111
28 | CCCc1ccc(-c2c(C(F)(F)F)nc3cc(OC)ccn3c2=O)cc1 [Example 1-79, 8-methoxy-3-(4-propylphenyl)-2-(trifluoromethyl)-4H-pyrido[1,2-a]pyrimidin-4-one] | 3.6
29 | COc1ccn2c(=O)c(-c3cc(CCC(F)(F)F)no3)c(C(F)(F)F)nc2c1 [Example 55, 8-Methoxy-2-(trifluoromethyl)-3-[3-(3,3,3-trifluoropropyl)-1,2-oxazol-5-yl]-4H-pyrido[1,2-a]pyrimidin-4-one] | 8.7
30 | COc1ccn2c(=O)c(-c3ccc(O[C@H](C)C#N)cc3)c(C(F)(F)F)nc2c1 [Example 8-8, (2R)-2-(4-(8-methoxy-4-oxo-2-(trifluoromethyl)-4H-pyrido[1,2-a]pyrimidin-3-yl)phenoxy)propanenitrile] | 566
31 | O=c1c(-c2cnc(OCC(F)(F)F)nc2)c(C(F)(F)F)nc2n1CCOC2 [Example 39-39, 3-[2-(2,2,2-trifluoroethoxy)pyrimidin-5-yl]-2-(trifluoromethyl)-4H,6H,7H,9H-pyrimido[2,1-c][1,4]oxazin-4-one] | > 67000
32 | CN(C)Cc1ccc2nc(C(F)(F)F)c(-c3cnn(CC(F)(F)C(F)(F)F)c3)c(=O)n2c1 [Example 39-29, 7-[(dimethylamino)methyl]-3-[1-(2,2,3,3,3-pentafluoropropyl)-1H-pyrazol-4-yl]-2-(trifluoromethyl)-4H-pyrido[1,2-a]pyrimidin-4-one] | > 67000
33 | O=c1c(-c2cnn(CC(F)(F)C(F)(F)F)c2)c(C(F)(F)F)nc2cc(C3CC3)ccn12 [Example 1-87, 8-cyclopropyl-3-(1-(2,2,3,3,3-pentafluoropropyl)-1H-pyrazol-4-yl)-2-(trifluoromethyl)-4H-pyrido[1,2-a]pyrimidin-4-one] | 85.9
34 | CCc1nc2cc(OC)ccn2c(=O)c1-c1ccc(OCC(F)(F)F)nc1 [Example 1-60, 2-ethyl-8-methoxy-3-(6-(2,2,2-trifluoroethoxy)-3-pyridinyl)-4H-pyrido[1,2-a]pyrimidin-4-one] | 37.8
